Measured values from ChEMBL document CHEMBL5380782, “Design, Biological Evaluation, and Computer-Aided Analysis of Dihydrothiazepines as Selective Antichlamydial Agents” (J Med Chem, 2023).
Converted amounts (≈) assume the structure as drawn. The source made the active and inactive calls. No cut-off for these calls is given here.

Tests used:
Chlamydia trachomatis [1] = assay: Antibacterial activity against Chlamydia trachomatis serovar L2 infected in HEp-2 cells assessed as bacterial growth inhibition at 25 to 0.39 ug/ml incubated for 16 hrs by IFA assay; format: functional, organism-based; details: dose 25-0.39 µg/ml
Chlamydia trachomatis [2] = assay: Antibacterial activity against Chlamydia trachomatis serovar L2 infected in HEp-2 cells assessed as bacterial growth inhibition incubated for 16 hrs by IFA assay; format: functional, organism-based; details: serovar L2, HEp-2, 16 h
Salmonella typhimurium [3] = assay: Mutagenicity in Salmonella typhimurium TA98 assessed as number of revertants per plate at 10 ug pretreated for 90 mins measured after 66 hrs by AMES test (reference value: 25.67 +/- 5.51); format: functional, Salmonella enterica subsp. enterica serovar Typhimurium; details: dose 10 µg; time 67.5 hrs
Chlamydia trachomatis [4] = assay: Inhibition of recombinant Chlamydia trachomatis ClpX ATPase activity assessed as reduction in ATP consumption at 25 ug/ml incubated for 60 mins by Kinase Glo assay relative to control; details: dose 25.0 µg/ml
Nakaseomyces glabratus = assay: Antimicrobial activity against Candida glabrata 2001 assessed as microbial growth inhibition by broth microdilution method; format: functional
Pichia kudriavzevii = assay: Antimicrobial activity against Pichia kudriavzevii 6558 assessed as microbial growth inhibition by broth microdilution method; format: functional
Candida tropicalis = assay: Antimicrobial activity against Candida tropicalis 750 assessed as microbial growth inhibition by broth microdilution method; format: functional
Salmonella typhimurium [5] = assay: Mutagenicity in Salmonella typhimurium TA98 assessed as number of revertants per plate at 2.5 ug pretreated for 90 mins measured after 66 hrs in presence of S9 fraction by AMES test (reference value: 24.33 +/- 9.50); format: functional, Salmonella enterica subsp. enterica serovar Typhimurium; details: dose 2.5 µg; time 67.5 hrs
Salmonella typhimurium [6] = assay: Mutagenicity in Salmonella typhimurium TA100 assessed as number of revertants per plate at 2.5 ug pretreated for 90 mins measured after 66 hrs in presence of S9 by AMES test (reference value: 201 +/- 9.90); format: functional, Salmonella enterica subsp. enterica serovar Typhimurium; details: dose 2.5 µg; time 67.5 hrs
[7] = Cytotoxicity against HEp-2 cells assessed as cell viability at 256 ug/ml incubated for 20 hrs by XTT assay relative to control; format: toxicity, cell-based; details: human, at 256 µg/mL, read-out: Activity
Chlamydia trachomatis [8] = assay: Antibacterial activity against Chlamydia trachomatis L2 infected in HEp-2 cells assessed as inhibition of infectious progeny incubated for 24 hrs by fluorescence microscopy; format: functional, organism-based; details: L2, HEp-2, 24 h
[9] = Cytotoxicity against HEC-1-A cells assessed as cell survival at 256 ug/ml incubated for 20 hrs by XTT assay relative to control; format: toxicity, cell-based; details: human, at 256 µg/mL, read-out: Survival
[10] = Cytotoxicity against HEK293 cells assessed as cell survival at 256 ug/ml incubated for 20 hrs by XTT assay relative to control; format: toxicity, cell-based; details: human, at 256 µg/mL, read-out: Survival
[11] = Cytotoxicity against HEK293 cells assessed as cell viability at 25 ug/ml incubated for 20 hrs by XTT assay relative to control; format: toxicity, cell-based; details: human, at 25 µg/mL, read-out: Activity
Staphylococcus aureus = assay: Antimicrobial activity against Staphylococcus aureus USA 300 JE2 assessed as microbial growth inhibition incubated for 24 hrs by TTC staining based assay; format: functional
Acinetobacter baumannii = assay: Antimicrobial activity against Acinetobacter baumannii 2208 assessed as microbial growth inhibition incubated for 24 hrs by TTC staining based assay; format: functional
Escherichia coli [12] = assay: Antimicrobial activity against Escherichia coli K12 assessed as microbial growth inhibition incubated for 24 hrs by TTC staining based assay; format: functional
Pseudomonas aeruginosa = assay: Antimicrobial activity against Pseudomonas aeruginosa PA01 assessed as microbial growth inhibition incubated for 24 hrs by TTC staining based assay; format: functional
Escherichia coli [13] = assay: Antimicrobial activity against non-pathogenic Escherichia coli ATCC MG1655 assessed as microbial growth inhibition incubated for 24 hrs by TTC staining based assay; format: functional
[14] = test system: Lacticaseibacillus rhamnosus; assay: Antimicrobial activity against Lactobacillus rhamnosus CGMCC 1.3724 assessed as microbial growth inhibition incubated for 24 hrs by TTC staining based assay; format: functional
[15] = test system: Lactiplantibacillus plantarum; assay: Antimicrobial activity against Lactobacillus plantarum DSM 20174 assessed as microbial growth inhibition incubated for 24 hrs; format: functional
Blautia producta = assay: Antimicrobial activity against Blautia producta DSM 2950 assessed as microbial growth inhibition incubated for 48 hrs; format: functional
Thomasclavelia ramosa = assay: Antimicrobial activity against Clostridium ramosum DSM 1402 assessed as microbial growth inhibition incubated for 48 hrs; format: functional
[16] = test system: Bacteroides thetaiotaomicron; assay: Antimicrobial activity against Bacteroides thetaiotaomicron DSM 2079 assessed as microbial growth inhibition incubated for 48 hrs; format: functional
Anaerostipes caccae = assay: Antimicrobial activity against Anaerostipes caccae […] assessed as microbial growth inhibition incubated for 48 hrs; format: functional
HEp-2 = assay: Cytotoxicity against HEp-2 cells assessed as cell viability at 25 ug/ml incubated for 20 hrs by XTT assay relative to control; format: toxicity, cell-based; details: human, hep-2, 20 h, at 25 µg/mL

| Structure (SMILES) | IC50 (Chlamydia trachomatis [2]; read-out: IC50) | IC50 (Chlamydia trachomatis [2]; read-out: pIC50 (converted)) [µM] | also measured |
| --- | --- | --- | --- |
| O=C(O)c1ccc(C2Sc3ccccc3NC3=C2C(=O)c2ccccc23)cc1 (stereo not given) |  |  | inhibition (Chlamydia trachomatis [1]): inactive |
| O=C1C2=C(Nc3ccccc3SC2c2ccc([N+](=O)[O-])cc2)c2ccccc21 (stereo not given) | 9.01 µg/mL |  |  |
| Nc1ccc([N+](=O)[O-])cc1N |  |  | Activity (Salmonella typhimurium [3]): 34.5 |
| O=C1C2=C(Nc3ccccc3SC2c2ccc(OC(F)(F)F)cc2)c2ccccc21 (stereo not given) | 7.44 µg/mL | 17.4 |  |
| N#Cc1ccc(C2SCCNC3=C2C(=O)c2ccccc23)cc1 (stereo not given) |  |  | inhibition (Chlamydia trachomatis [1]): inactive; inhibition (Chlamydia trachomatis [4]): 20% |
| OC(Cn1cncn1)(Cn1cncn1)c1ccc(F)cc1F [FLUCONAZOLE] |  |  | MIC (Nakaseomyces glabratus): 2 µg/mL (≈ 6.53 µM); MIC (Pichia kudriavzevii): 16 µg/mL (≈ 52.2 µM); MIC (Candida tropicalis): 0.5 µg/mL (≈ 1.63 µM) |
| Nc1ccc(C2Sc3ccccc3NC3=C2C(=O)c2ccccc23)cc1 (stereo not given) | 17.6 µg/mL | 49 |  |
| O=C1C2=C(Nc3ccccc3SC2c2ccc(OCc3ccccc3)cc2)c2ccccc21 (stereo not given) | 22.8 µg/mL | 51.3 |  |
| Nc1ccc2cc3ccccc3cc2c1 [2-AMINOANTHRACENE] |  |  | Activity (Salmonella typhimurium [5]): 137; Activity (Salmonella typhimurium [6]): 1256 |
| N#Cc1ccc(C2Sc3ccccc3NC3=C2C(=O)c2ccccc23)cc1 (stereo not given) | 10.2 µg/mL |  |  |
| O=C1C2=C(Nc3ccccc3SC2c2ccc(-c3ccccc3)cc2)c2ccccc21 (stereo not given) |  |  | inhibition (Chlamydia trachomatis [1]): inactive |
| COc1cccc(C2C3=C(Nc4ccccc4S2(=O)=O)c2ccccc2C3=O)c1 (stereo not given) | 10 µg/mL |  |  |
| O=C1C2=C(Nc3ccccc3SC2c2cccc(C(F)(F)F)c2)c2ccccc21 (stereo not given) | 5.18 µg/mL |  |  |
| N#Cc1cccc(C2Sc3ccccc3NC3=C2C(=O)c2ccccc23)c1 (stereo not given) | 9 µg/mL |  |  |
| Cc1ccc(C2SCCNC3=C2C(=O)c2ccccc23)cc1 (stereo not given) | 21.4 µg/mL | 69.2 |  |
| Cc1ccc(C2Sc3ccccc3NC3=C2C(=O)c2ccccc23)cc1 (stereo not given) | 6.72 µg/mL |  |  |
| O=C1C2=C(NCCSC2c2ccc(Br)cc2)c2ccccc21 (stereo not given) | 21.3 µg/mL |  |  |
| COc1ccccc1C1Sc2ccc(C(F)(F)F)cc2NC2=C1C(=O)c1ccccc12 (stereo not given) | 2.46 µM | 2.51 | viability at 20 h, 256 ug/ml [7]: 100% |
| O=C1C2=C(Nc3ccccc3SC2c2ccc(Cl)cc2)c2ccccc21 (stereo not given) | 6.59 µg/mL | 17.4 |  |
| N#Cc1ccccc1C1Sc2ccc(C(F)(F)F)cc2NC2=C1C(=O)c1ccccc12 (stereo not given) | 1.61 µM | 1.62 | viability at 20 h, 256 ug/ml [7]: 100% |

| Structure (SMILES) | IC50 (Chlamydia trachomatis [2]; read-out: IC50) | IC50 (Chlamydia trachomatis [2]; read-out: pIC50 (converted)) [µM] | also measured |
| --- | --- | --- | --- |
| O=C1C2=C(Nc3ccccc3SC2c2cccc(Cl)c2)c2ccccc21 (stereo not given) | 4.79 µg/mL | 12.9 |  |
| O=C1C2=C(Nc3ccccc3SC2c2ccc(O)cc2)c2ccccc21 (stereo not given) | 14.4 µg/mL | 39.8 |  |
| COc1ccc(C2Sc3ccc(C(F)(F)F)cc3NC3=C2C(=O)c2ccccc23)cc1 (stereo not given) | 12.3 µg/mL | 28.2 |  |
| O=C1C2=C(Nc3ccccc3SC2c2cccc(O)c2)c2ccccc21 (stereo not given) | 16.5 µg/mL | 45.7 |  |
| O=C1C2=C(Nc3ccccc3SC2c2cccc([N+](=O)[O-])c2)c2ccccc21 (stereo not given) | 6.35 µg/mL |  |  |
| Cc1cccc(C2Sc3ccccc3NC3=C2C(=O)c2ccccc23)c1F (stereo not given) | 4.69 µg/mL | 12.6 | IC50 (Chlamydia trachomatis [8]): 7.13 µg/mL (≈ 19.1 µM); viability at 20 h, 256 ug/ml [9]: ≥ 75%; viability at 20 h, 256 ug/ml [10]: ≥ 75%; viability at 20 h, 256 ug/ml [7]: 50%; viability at 20 h, 25 ug/ml [11]: 78%; inhibition (Chlamydia trachomatis [4]): 20% |
| O=C1C2=C(Nc3cc(C(F)(F)F)ccc3SC2c2ccc(Br)cc2)c2ccccc21 (stereo not given) | 6.93 µg/mL |  |  |
| Cc1ccc(C2Nc3ccccc3NC3=C2C(=O)c2ccccc23)cc1 (stereo not given) | 15 µg/mL |  |  |
| O=C1C2=C(Nc3cc(C(F)(F)F)ccc3SC2c2cccs2)c2ccccc21 (stereo not given) | 6.53 µg/mL |  |  |
| N#Cc1ccc(C2Nc3ccccc3NC3=C2C(=O)c2ccccc23)cc1 (stereo not given) | 20.9 µg/mL |  |  |
| COc1ccc(C2SCCNC3=C2C(=O)c2ccccc23)cc1 (stereo not given) | 16.1 µg/mL |  |  |
| CC[C@H]1OC(=O)[C@H](C)[C@@H](O[C@H]2C[C@@](C)(OC)[C@@H](O)[C@H](C)O2)[C@H](C)[C@@H](O[C@@H]2O[C@H](C)C[C@H](N(C)C)[C@H]2O)[C@](C)(O)C[C@@H](C)CN(C)[C@H](C)[C@@H](O)[C@]1(C)O [AZITHROMYCIN] |  |  | IC50 (Chlamydia trachomatis [8]): 0.06 µg/mL (≈ 0.0801 µM); MIC (Staphylococcus aureus): 2 µg/mL (≈ 2.67 µM); MIC (Acinetobacter baumannii): < 1 µg/mL; MIC (Escherichia coli [12]): < 1 µg/mL; MIC (Pseudomonas aeruginosa): 125 µg/mL (≈ 167 µM); MIC (Escherichia coli [13]): 2 µg/mL (≈ 2.67 µM); MIC [14]: 1 µg/mL (≈ 1.34 µM); MIC [15]: 2 µg/mL (≈ 2.67 µM); MIC (Blautia producta): < 0.06 µg/mL; MIC (Thomasclavelia ramosa): < 0.06 µg/mL; MIC [16]: 0.5 µg/mL (≈ 0.668 µM); MIC (Anaerostipes caccae): > 125 µg/mL |
| O=C1C2=C(Nc3ccccc3SC2c2ccccc2C(=O)O)c2ccccc21 (stereo not given) |  |  | inhibition (Chlamydia trachomatis [1]): inactive; inhibition (Chlamydia trachomatis [4]): 20% |
| Cc1ccccc1C1Sc2ccccc2NC2=C1C(=O)c1ccccc12 (stereo not given) | 7.82 µM | 7.94 |  |
| O=C1C2=C(Nc3ccccc3SC2c2cccs2)c2ccccc21 (stereo not given) | 7.36 µg/mL |  |  |
| CC(=O)Oc1ccc(C2Sc3ccccc3NC3=C2C(=O)c2ccccc23)cc1 (stereo not given) | 7.18 µg/mL |  |  |
| COc1ccc(C2Nc3ccccc3NC3=C2C(=O)c2ccccc23)cc1 (stereo not given) | 22.6 µg/mL | 53.7 |  |
| COc1ccccc1C1Sc2ccccc2NC2=C1C(=O)c1ccccc12 (stereo not given) | 3.32 µg/mL | 8.91 | IC50 (Chlamydia trachomatis [8]): 6.41 µg/mL (≈ 17.3 µM); viability at 20 h, 256 ug/ml [9]: ≥ 75%; viability at 20 h, 256 ug/ml [10]: ≥ 75%; viability at 20 h, 256 ug/ml [7]: 50%; Activity (HEp-2): 73% |
| O=C1C2=C(Nc3ccccc3SC2c2ccc(Cl)cc2Cl)c2ccccc21 (stereo not given) | 6.37 µg/mL | 15.5 |  |
| COc1ccc(C2Sc3ccccc3N=C3C2=C(O)c2ccccc23)cc1 (stereo not given) | 14.7 µg/mL |  |  |
